What was measured:
[1] = Antiproliferative activity against human H1975-1 harboring EGFR L858R/T790M mutant measured after 72 hrs by sulforhodamine B assay; type: functional
A-431 = experiment: Antiproliferative activity against human A431 wild type cells measured after 72 hrs by Sulforhodamine B assay; type: functional, cell-based; conditions: A-431, 72 h
HCC827 = experiment: Antiproliferative activity against human HCC827 cells measured after 72 hrs by sulforhodamine B assay; type: functional, cell-based; conditions: HCC827, 72 h
A549 = experiment: Antiproliferative activity against human A549 cells measured after 72 hrs by sulforhodamine B assay; type: functional, cell-based; conditions: A549, 72 h
L02 = experiment: Cytotoxicity against human HL7702 cells measured after 72 hrs by sulforhodamine B assay; type: cell-based; conditions: L02, 72 h
[2] = molecular target: Epidermal growth factor receptor (Homo sapiens, UniProt P00533, L858R/T790M); experiment: Inhibition of EGFR L858R/T790M (unknown origin)
Chain of Epidermal growth factor receptor (Homo sapiens, UniProt P00533, L858R/T790M) (P00533 25-1210 T790M/L858R limits assumed): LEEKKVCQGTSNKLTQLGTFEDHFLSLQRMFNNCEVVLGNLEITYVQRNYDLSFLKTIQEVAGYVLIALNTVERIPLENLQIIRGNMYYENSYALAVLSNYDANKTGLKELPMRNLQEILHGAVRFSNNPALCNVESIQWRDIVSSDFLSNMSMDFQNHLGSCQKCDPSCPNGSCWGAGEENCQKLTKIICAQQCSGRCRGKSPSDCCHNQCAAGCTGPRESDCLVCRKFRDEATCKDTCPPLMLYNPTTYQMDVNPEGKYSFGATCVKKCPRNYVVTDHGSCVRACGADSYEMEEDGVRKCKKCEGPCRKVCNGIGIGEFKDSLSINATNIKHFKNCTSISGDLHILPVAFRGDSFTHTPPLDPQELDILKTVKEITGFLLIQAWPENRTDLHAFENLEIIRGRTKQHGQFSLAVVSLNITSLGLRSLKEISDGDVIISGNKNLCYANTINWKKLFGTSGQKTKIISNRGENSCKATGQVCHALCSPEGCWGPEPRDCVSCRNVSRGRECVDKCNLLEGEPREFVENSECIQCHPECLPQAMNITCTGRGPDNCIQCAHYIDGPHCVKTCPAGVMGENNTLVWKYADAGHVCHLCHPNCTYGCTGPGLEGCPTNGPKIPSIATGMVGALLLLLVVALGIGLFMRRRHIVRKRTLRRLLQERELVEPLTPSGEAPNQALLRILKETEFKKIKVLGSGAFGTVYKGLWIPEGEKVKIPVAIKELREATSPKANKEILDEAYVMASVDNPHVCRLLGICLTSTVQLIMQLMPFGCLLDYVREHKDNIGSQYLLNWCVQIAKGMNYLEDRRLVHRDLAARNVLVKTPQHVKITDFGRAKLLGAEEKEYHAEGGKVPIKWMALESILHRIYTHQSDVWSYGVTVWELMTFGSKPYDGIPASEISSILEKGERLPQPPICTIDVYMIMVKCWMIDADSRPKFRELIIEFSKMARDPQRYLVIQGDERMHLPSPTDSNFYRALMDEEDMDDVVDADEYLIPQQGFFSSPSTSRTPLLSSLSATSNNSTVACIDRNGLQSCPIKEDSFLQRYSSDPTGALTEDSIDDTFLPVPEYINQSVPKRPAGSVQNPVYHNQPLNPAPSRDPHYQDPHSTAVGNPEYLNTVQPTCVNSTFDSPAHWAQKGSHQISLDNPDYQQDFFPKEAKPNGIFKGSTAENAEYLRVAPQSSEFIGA

[3] = molecular target: Epidermal growth factor receptor (Homo sapiens, UniProt P00533); experiment: Inhibition of wild type EGFR (unknown origin)
Chain of Epidermal growth factor receptor (Homo sapiens, UniProt P00533) (P00533 whole entry): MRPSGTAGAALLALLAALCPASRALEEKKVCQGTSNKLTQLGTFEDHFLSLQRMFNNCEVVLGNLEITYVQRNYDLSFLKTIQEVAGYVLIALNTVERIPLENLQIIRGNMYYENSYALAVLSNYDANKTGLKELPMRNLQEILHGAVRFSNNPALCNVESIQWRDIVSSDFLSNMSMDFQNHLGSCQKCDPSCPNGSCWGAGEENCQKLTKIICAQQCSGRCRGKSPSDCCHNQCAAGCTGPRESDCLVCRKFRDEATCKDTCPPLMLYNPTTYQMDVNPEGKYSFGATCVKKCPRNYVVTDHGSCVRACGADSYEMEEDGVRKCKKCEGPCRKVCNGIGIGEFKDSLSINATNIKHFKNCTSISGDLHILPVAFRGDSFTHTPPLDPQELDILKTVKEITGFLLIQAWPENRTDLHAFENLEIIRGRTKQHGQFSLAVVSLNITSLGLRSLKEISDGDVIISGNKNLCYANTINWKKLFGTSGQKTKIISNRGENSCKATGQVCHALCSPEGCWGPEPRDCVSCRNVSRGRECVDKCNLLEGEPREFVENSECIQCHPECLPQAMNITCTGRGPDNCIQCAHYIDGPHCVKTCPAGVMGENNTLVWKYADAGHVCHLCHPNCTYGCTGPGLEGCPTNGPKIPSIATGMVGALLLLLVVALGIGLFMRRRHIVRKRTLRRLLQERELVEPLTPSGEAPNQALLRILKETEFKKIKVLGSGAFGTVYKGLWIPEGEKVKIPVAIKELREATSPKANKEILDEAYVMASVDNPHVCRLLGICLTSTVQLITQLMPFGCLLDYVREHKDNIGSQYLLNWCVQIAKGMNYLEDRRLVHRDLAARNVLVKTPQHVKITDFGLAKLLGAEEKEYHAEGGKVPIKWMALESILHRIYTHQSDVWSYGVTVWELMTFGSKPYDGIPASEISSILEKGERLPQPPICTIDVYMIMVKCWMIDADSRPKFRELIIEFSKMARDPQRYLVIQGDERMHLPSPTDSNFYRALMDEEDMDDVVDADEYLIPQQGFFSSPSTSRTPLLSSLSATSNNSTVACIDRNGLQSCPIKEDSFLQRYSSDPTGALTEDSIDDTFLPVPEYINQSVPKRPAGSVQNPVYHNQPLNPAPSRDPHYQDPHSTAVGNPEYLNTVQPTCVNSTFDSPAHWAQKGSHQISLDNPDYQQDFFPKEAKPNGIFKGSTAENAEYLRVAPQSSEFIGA

Compound | IC50 [1] [µM] | IC50 (A-431) [µM] | IC50 (HCC827) [µM] | IC50 (A549) [µM] | IC50 (L02) [µM] | IC50 [2] [µM] | IC50 [3] [µM]
C=C1CC(C(Br)c2ccccc2)OC1=O (racemic) | 6.2 | 20.3 |  |  |  |  | 
C=C1C(=O)O[C@@H]2C3O[C@]3(C)CC/C=C(\C)CC[C@@H]12 (stereo partly drawn) | 1.43 | 2.57 |  |  |  |  | 
C=C1CC[C@](CBr)(c2ccccc2)OC1=O | 1.33 | 10.9 |  |  |  |  | 
C=C1CC[C@@](CBr)(c2ccccc2)OC1=O | 1.62 | 2.2 |  |  |  |  | 
C=C1CC(CI)(c2ccccc2)OC1=O (racemic) | 0.65 | 2.72 | 2.2 | 1.98 | 2.2 | 26 | 47
CC(=O)O[C@H]1C(=O)[C@@]2(C)[C@H]([C@H](OC(=O)c3ccccc3)[C@]3(O)C[C@H](OC(=O)[C@H](O)[C@@H](NC(=O)c4ccccc4)c4ccccc4)C(C)=C1C3(C)C)[C@]1(OC(C)=O)CO[C@@H]1C[C@@H]2O [PACLITAXEL] | 0.003 | 0.002 |  |  |  |  | 
C=C1CC2(CCCc3ccccc3C2Br)OC1=O (racemic) | 1.08 | 1.27 |  |  |  |  | 
C=CC(=O)Nc1cc(Nc2nccc(-c3cn(C)c4ccccc34)n2)c(OC)cc1N(C)CCN(C)C [OSIMERTINIB] | 0.02 | […] | 0.2 | 0.14 | 0.3 |  | 
C=C1CC(C[Se]c2ccccc2)(c2ccccc2)OC1=O (racemic) | 1.3 | 1.27 |  |  |  |  | 
C=C1CC(CBr)(c2ccc(OC)cc2)OC1=O (racemic) | 2.3 | 4.2 |  |  |  |  | 
C=C1CC(CBr)(c2ccccc2)OC1=O (racemic) | 0.8 | 1.48 |  |  |  |  | 
C=C1CC(CBr)(c2ccccc2C)OC1=O (racemic) | 3.5 | 5.5 |  |  |  |  | 
C=C1CC(CBr)(c2ccc(C)cc2)OC1=O (racemic) | 1.1 | 2.2 |  |  |  |  | 
C=C1CC(c2ccccc2)(C(C)Br)OC1=O (racemic) | 1.66 | 5.24 |  |  |  |  | 
C=C1CC(c2ccccc2)(C(Cl)c2ccccc2)OC1=O (racemic) | 1.26 | 2.77 |  |  |  |  | 
C=C1CC(CI)(c2ccc(F)cc2)OC1=O (racemic) | 0.6 | 1.9 | 1.1 | 1.21 | 1.2 | 15 | 24
C=C1CC(c2ccccc2)(C(Br)c2ccccc2)OC1=O (racemic) | 0.25 | 4.19 | 1 | 1.37 | 0.96 | 14 | 29
C=C1CC(CBr)(c2ccccc2F)OC1=O (racemic) | 1.3 | 1.7 |  |  |  |  | 

Compound | IC50 [1] [µM] | IC50 (A-431) [µM] | IC50 (HCC827) [µM] | IC50 (A549) [µM] | IC50 (L02) [µM] | IC50 [2] [µM] | IC50 [3] [µM]
C=C1C[C@]2(CCCc3ccccc3[C@H]2Br)OC1=O | 1.2 | 3.3 |  |  |  |  | 
C=C1C[C@]2(Cc3ccccc3[C@H]2Br)OC1=O | 4.39 | 2.09 |  |  |  |  | 
C=C1CC(CBr)(c2cccc(C)c2)OC1=O (racemic) | 1.2 | 4.5 |  |  |  |  | 
C=C1CC(CBr)(c2ccccc2OC)OC1=O (racemic) | 1.1 | 2.4 |  |  |  |  | 
C=C1CN(S(=O)(=O)c2ccc([N+](=O)[O-])cc2)CC(CBr)(c2ccccc2)OC1=O (racemic) | 24.2 | 21.2 |  |  |  |  | 
C=C1C[C@]2(CCc3ccccc3[C@H]2Br)OC1=O | 1.22 | 4.1 |  |  |  |  | 
C=C1C[C@](CBr)(c2ccccc2)OC1=O | 0.97 | 1.33 |  |  |  |  | 
C=C1CC(CBr)(c2ccc(F)cc2)OC1=O (racemic) | 0.6 | 0.8 | 2.3 | 1.68 | 2.4 | 30 | 64
C=C1C[C@](CCl)(c2ccccc2)OC1=O | 9.77 | 30.6 |  |  |  |  | 
C=C1C[C@@]2(CCCc3ccccc3[C@@H]2Br)OC1=O | 1 | 2.5 |  |  |  |  | 
C=C1CC(CBr)(c2ccc(Cl)cc2)OC1=O (racemic) | 1.54 | 1.1 |  |  |  |  | 
C=C1CC(C)(CBr)OC1=O (racemic) | 32 | 124 |  |  |  |  | 
C=C1CC(CF)(c2ccccc2)OC1=O (racemic) | 13.3 | 25.1 |  |  |  |  | 
C=C1C[C@@](CCl)(c2ccccc2)OC1=O | 21.4 | 43 |  |  |  |  | 
C=C1CC(CO)(c2ccccc2)OC1=O (racemic) | 2.26 | 4.06 |  |  |  |  | 
C=C1CC(CBr)(c2ccc(C(F)(F)F)cc2)OC1=O (racemic) | 1.94 | 1.01 |  |  |  |  | 
C=C1C[C@]2(CCCC[C@H]2Br)OC1=O (racemic) | 4.55 | 21.2 |  |  |  |  | 

— ChEMBL document CHEMBL4616600, “Synthesis and cytotoxic evaluation of halogenated α-exo-methylene-lactones” (Bioorg Med Chem, 2020)
